Reference: patent publication US11666600B2, “Methods for culturing and/or differentiating hematopoietic stem cells into progenitors and uses thereof” (HEMA-QUEBEC, priority 2015, dated 2023)

Key:
[1] = tested on: aryl hydrocarbon receptor (AhR) pathway; conditions: Fares et al., 2014; cited from earlier work
[2] = tested on: CD34+/CD45RA− mobilized peripheral blood cells; conditions: Fares et al., 2014; cited from earlier work
[3] = tested on: cord blood CD34+ cells; experiment: Expansion of CD34+/CD41+ megakaryocytic progenitors from cord blood CD34+ cells; format: cell-based, human; conditions: 39° C. + PIC2 500 nM; 14 days; SFEM + BS1; FIG. 7
Experimental: Human cord blood (CB) was collected after obtaining written informed consent from donors, following our institutional Research Ethics Committee guidelines. Mononuclear cells (MNCs) were first separated over a Ficoll-Hypaque™ density gradient (GE Healthcare), then cryopreserved at −180° C. in Cryostor CS10™ medium ([…] Technologies). Thawed MNCs from six to eight CB were pooled before CD34 isolation. CB CD34+ cells were enriched by positive selection using the EasySep™ CD34 enrichment kit, according to the manufacturer's instructions ([…] Technologies). […]
Cellular counts and viability were determined by adding Solution 18 (Acridine Orange and DAPI solution, ChemomMetec) and using NucleoCounter™ NC-250 for detection (ChemomMetec).
For cells expanded in conditions favoring differentiation towards the MK lineage, surface markers were detected using the following antibodies: CD34-FITC, CD41a-APC and CD42b-PE. […] All samples were analyzed on an Accuri™ C6 flow cytometer (BD Biosciences), and raw data were analyzed with FCS Express 5 Flow Research Edition software from at least 15 000 viable cell events acquired for each sample. […]
Cellular counts and viability were determined as described in Example 6.5. […]

For `COC(=O)c1ccc2c(c1)[nH]c1ncnc(NCCCN3CCCCC3)c12` [PIC2, Methyl 4-((3-(piperidin-1-yl)propyl)amino)-9H-pyrimido[4,5-b]indole-7-carboxylate], the “suppression of the aryl hydrocarbon receptor (AhR) pathway” value [1] is given as “without acting as suppressors”, the “expansion of CD34+/CD45RA− mobilized peripheral blood cells (enriched in LT-HSCs)” value [2] is given as “stimulate expansion” and the “combined use of mild hyperthermia and PIC2 on expansion of CB CD34+/CD41+ cells” value [3] is given as “synergistic effect”.
